Source: ChEMBL document CHEMBL1275463, “Detection of the erythromycin rRNA methylase gene erm(A) in Enterococcus faecalis” (2008)
Values after ≈ are worked out from the molar mass of the structure shown.

Tests used:
Enterococcus faecalis [1] = assay: Antimicrobial activity against Enterococcus faecalis expressing rRNA methylase gene erm(A) obtained from pig manure by broth microdilution method; type: functional
Enterococcus faecalis [2] = assay: Antimicrobial activity against Enterococcus faecalis expressing rRNA methylase gene erm(A) obtained from human by broth microdilution method; type: functional

Structure (SMILES)	MIC (Enterococcus faecalis [1]) [µg/mL]	MIC (Enterococcus faecalis [2]) [µg/mL]
CC[C@H]1OC(=O)[C@H](C)[C@@H](O[C@H]2C[C@@](C)(OC)[C@@H](O)[C@H](C)O2)[C@H](C)[C@@H](O[C@@H]2O[C@H](C)C[C@H](N(C)C)[C@H]2O)[C@](C)(O)C[C@@H](C)C(=O)[C@H](C)[C@@H](O)[C@]1(C)O [ERYTHROMYCIN]	> 8	1 (≈ 1.36 µM)
CN(C)[C@@H]1C(O)=C(C(N)=O)C(=O)[C@@]2(O)C(O)=C3C(=O)c4c(O)cccc4[C@@](C)(O)[C@H]3C[C@@H]12 [TETRACYCLINE]	> 4	> 4
